{"source": "patent US9962364B2", "about": "“Wound healing accelerator” (priority 2012, dated 2018)", "system": "mouse-derived 3T3-L1 fibroblasts", "assay": "Cell growth of mouse fibroblasts by MTT assay after treating for one minute (Tests 1, 2, 4)", "format": "cell-based", "settings": "treatment for 1 minute, then 24 hours of culture, versus physiological saline control", "description": "Specifically, after 20 hours of culture, 10 μl of MTT reagent (from Trevigen Inc.) was added to each well and the cells were further cultured for 4 hours under conditions of 37° C. and 5% CO2. After the culture, 100 μl of the Detergent Reagent (Trevigen Inc.) was each added and the cells were left in the dark overnight at room temperature. The absorbance at 595 nm was then determined using a microplate reader (FilterMaxTM F5 Multi-Mode Microplate Reader, Molecular Devices, LLC.). […] The absorbance of the control group in Test 1 was 0.289±0.016. Gallic acid (from Tokyo Chemical Industry Co., Ltd.), caffeic acid (from Tokyo Chemical Industry Co., Ltd.), (+)-catechin (from Tokyo Chemical Industry Co., Ltd.) and chlorogenic acid (from Sigma-Aldrich Co. LLC.) were assayed. […] The absorbance of the control group in Test 2 was 0.196±0.011. Green tea extract (from MARUZEN PHARMACEUTICALS CO., LTD.) was assayed. […] The absorbance of the control group in Test 4 was 0.276±0.010.", "data": [{"smiles": "O=C(O)c1cc(O)c(O)c(O)c1", "note": "[gallic acid]", "values": [{"measurement": "growth of fibroblasts (extent of cell growth by MTT assay)", "result": "no growth of fibroblasts was observed"}]}]}
